16 molecules from ChEMBL document CHEMBL2046440, “C-Aryl 5a-carba-β-d-glucopyranosides as novel sodium glucose cotransporter 2 (SGLT2) inhibitors for the treatment of type 2 diabetes” (Bioorg Med Chem, 2012) can be followed below.

The source made the active and inactive calls. The rule behind the calls is not given here.

Data set [1] has as its target T1, Sodium/glucose cotransporter 2 (Homo sapiens, UniProt P31639).
T1 sequence (P31639 whole entry): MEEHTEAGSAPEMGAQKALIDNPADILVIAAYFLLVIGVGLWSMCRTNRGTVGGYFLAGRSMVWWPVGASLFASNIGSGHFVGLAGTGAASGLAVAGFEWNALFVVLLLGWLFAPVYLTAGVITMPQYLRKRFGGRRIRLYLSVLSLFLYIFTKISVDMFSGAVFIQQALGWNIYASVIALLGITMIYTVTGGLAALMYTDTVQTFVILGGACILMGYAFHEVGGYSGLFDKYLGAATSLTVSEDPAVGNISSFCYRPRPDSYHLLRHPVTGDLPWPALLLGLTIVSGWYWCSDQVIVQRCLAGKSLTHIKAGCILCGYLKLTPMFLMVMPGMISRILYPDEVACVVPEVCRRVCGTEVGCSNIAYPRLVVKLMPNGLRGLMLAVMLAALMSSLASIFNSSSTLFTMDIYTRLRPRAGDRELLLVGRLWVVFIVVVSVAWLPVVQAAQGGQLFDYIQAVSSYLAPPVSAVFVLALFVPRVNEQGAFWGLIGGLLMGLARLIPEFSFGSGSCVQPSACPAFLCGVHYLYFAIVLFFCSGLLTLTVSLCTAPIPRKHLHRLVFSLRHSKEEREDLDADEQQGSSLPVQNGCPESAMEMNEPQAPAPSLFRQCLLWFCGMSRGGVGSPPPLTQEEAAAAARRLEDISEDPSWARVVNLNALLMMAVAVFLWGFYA
Kind of data set: Inhibition of human SGLT2 expressed in CHO-K1 cells by [14C]AMG uptake assay. In kind it is cell-based.

Data set [2] deals with T2, Cytochrome P450 3A4 (Homo sapiens, UniProt P08684). As to the kind of experiment: Inhibition of CYP3A4 using BFC substrate in which compound added to reaction mixture simultaneously with BFC substrate by fluorometric assay. In kind it is ADME.
T2 sequence (P08684 whole entry): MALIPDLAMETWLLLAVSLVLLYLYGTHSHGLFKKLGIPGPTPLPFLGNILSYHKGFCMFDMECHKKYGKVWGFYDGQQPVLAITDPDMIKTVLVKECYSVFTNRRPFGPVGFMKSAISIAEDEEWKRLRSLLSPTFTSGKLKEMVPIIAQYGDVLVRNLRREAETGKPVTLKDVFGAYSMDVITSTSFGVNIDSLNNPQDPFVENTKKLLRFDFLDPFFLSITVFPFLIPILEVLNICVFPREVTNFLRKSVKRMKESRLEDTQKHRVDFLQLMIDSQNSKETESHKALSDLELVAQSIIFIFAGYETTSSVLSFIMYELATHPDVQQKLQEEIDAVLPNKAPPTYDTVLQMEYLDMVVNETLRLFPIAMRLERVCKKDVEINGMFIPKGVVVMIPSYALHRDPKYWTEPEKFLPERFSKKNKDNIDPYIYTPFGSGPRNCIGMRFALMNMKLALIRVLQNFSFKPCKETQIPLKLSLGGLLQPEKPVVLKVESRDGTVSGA
Data set [3] concerns the target T2, Cytochrome P450 3A4. Kind of data set: Inhibition of CYP3A4 using BFC substrate in which compound added to reaction mixture before addition of BFC substrate by fluorometric assay. In kind it is ADME.
Data set [4] has as its target T2, Cytochrome P450 3A4. As to the kind of experiment: Inhibition of CYP3A4 using BFC substrate by fluorometric assay. As to conditions: TDE = time-dependent effect. In kind it is ADME.
For another data set, the target named is CYP3A4 (Homo sapiens, UniProt P08684). Kind of data set: in vitro. Particulars: probe BFC.
Chain of CYP3A4 (P08684 whole entry): as above
The test system of data set [5] is Mus musculus. As to the kind of experiment: Hypoglycemic effect in db/db mouse assessed as reduction in glucose level at 30 mg/kg, po measured 4 hrs post dose administered as single dose by hexokinase method. In kind it is functional, organism-based. Details: dose 30 mg/kg.
The test system of data set [6] is Mus musculus. Kind of data set: Hypoglycemic effect in db/db mouse assessed as reduction in glucose level at 30 mg/kg, po measured 8 hrs post dose administered as single dose by hexokinase method. In kind it is functional, organism-based. On the set-up: dose 30 mg/kg.
Data set [7] deals with Mus musculus. Kind of data set: Hypoglycemic effect in db/db mouse assessed as reduction in glucose AUC (0 to 8 hrs) at 30 mg/kg, po administered as single dose by hexokinase method relative to untreated control. In kind it is functional. On the set-up: scale not given: the % may be the effect or the level left.
Data set [8] deals with Mus musculus. Kind of data set: (§1) Half life in db/db mouse at 10 mg/kg, po administered as single dose by LC-MS/MS system method. In kind it is ADME, organism-based. Details: dose 10 mg/kg, route oral. As to conditions: in vivo.
The nature of data set [9]: Tmax in db/db mouse at 10 mg/kg, po administered as single dose by LC-MS/MS system method. In kind it is ADME, organism-based. On the set-up: dose 10 mg/kg, route oral. Particulars: in vivo.
Data set [10] has as its system Mus musculus. Kind of data set: (§2) Cmax in db/db mouse at 10 mg/kg, po administered as single dose by LC-MS/MS system method. In kind it is ADME, organism-based. On the set-up: dose 10 mg/kg, route oral. Particulars: in vivo.
A short description of data set [11]: AUC (infinity) in db/db mouse at 10 mg/kg, po administered as single dose by LC-MS/MS system method. Details: time infinity, dose 10 mg/kg, route oral. In kind it is ADME, organism-based. Particulars: plasma.
The subject of data set [12] is Mus musculus. As to the kind of experiment: (§3) Apparent volume of distribution during terminal phase in db/db mouse at 10 mg/kg, po administered as single dose by LC-MS/MS system method. In kind it is ADME, organism-based. Details: dose 10 mg/kg, route oral. Particulars: in vivo.
In data set [13] the test system is Mus musculus. Kind of data set: Hypoglycemic effect in db/db mouse assessed as reduction in glucose AUC (0 to 8 hrs) at 100 mg/kg, po administered as single dose by hexokinase method relative to untreated control. In kind it is functional. On the set-up: scale not given: the % may be the effect or the level left.
Data set [14] is described as follows: as §1. In kind it is ADME, organism-based. On the set-up: dose 10 mg/kg, route oral. Particulars: db/db, in vivo.
Data set [15] in a line: as §2. Details: dose 10 mg/kg, route oral. In kind it is ADME, organism-based. As to conditions: db/db, in vivo.
A short description of data set [16]: as §3. Details: dose 10 mg/kg, route oral. Particulars: db/db, in vivo, read-out: Vz/F. In kind it is ADME, organism-based.
Data set [17] is described as follows: Apparent oral clearance in db/db mouse at 10 mg/kg, po administered as single dose by LC-MS/MS system method. In kind it is ADME, organism-based. Details: dose 10 mg/kg, route oral. As to conditions: in vivo.

Description for CYP3A4: Potency index, ratio of IC50 for CYP3A4 (unknown origin) using BFC substrate in which compound added to reaction mixture simultaneously with BFC substrate to IC50 for CYP3A4 using BFC substrate in which compound added to reaction mixture before addition of BFC substrate

As to `CCc1ccc(Cc2cc([C@@H]3C[C@H](CO)[C@@H](O)[C@H](O)[C@H]3O)ccc2OC)cc1`, in data set [1], the IC50 was 8.3 nM.

In the case of `OC[C@H]1C[C@@H](c2cccc(Cc3ccc(C4CC4)cc3)c2)[C@H](O)[C@@H](O)[C@@H]1O`, the IC50 in data set [1] is 11 nM; at Cytochrome P450 3A4 [2], 76000 nM; on Cytochrome P450 3A4 [3], 33000 nM. Besides, the “inhibition (INH)” value on Cytochrome P450 3A4 [4] was “tde”. For the same molecule, on CYP3A4, the IC50 shift worked out at 2.3.

For `COc1ccc(Cc2cccc([C@@H]3C[C@H](CO)[C@@H](O)[C@H](O)[C@H]3O)c2)cc1`, the figures for the IC50 (in [1]; on Cytochrome P450 3A4 [2]; on Cytochrome P450 3A4 [3]) were 73 nM, greater than 50000 nM and greater than 50000 nM, respectively.

Consider `CCOc1ccc(Cc2ccc(CC)cc2)cc1[C@]1(O)C[C@H](CO)[C@@H](O)[C@H](O)[C@H]1O`, for which the IC50 in data set [1] came out at 9.9 nM. In the data set with Mus musculus [5], the outcome was Active. The result with Mus musculus [6] was inactive. Also, the Activity in the data set on Mus musculus [7] was 39.1%.

In turn, `Cc1ccc([C@@H]2O[C@H](CO)[C@@H](O)[C@H](O)[C@H]2O)cc1Cc1ccc(-c2ccc(F)cc2)s1` [CANAGLIFLOZIN ANHYDROUS] gave an IC50 in [1] of 6.7 nM.

For `CCc1ccc(Cc2cc([C@@H]3C[C@H](CO)[C@@H](O)[C@H](O)[C@H]3O)c(OC)cc2OC)cc1`, the IC50 in data set [1] was 8.5 nM; at Cytochrome P450 3A4 [2] it was 25700 nM; on Cytochrome P450 3A4 [3] it was 40300 nM. Also, on CYP3A4, the IC50 shift stood at 0.6.

Regarding `CCc1ccc(Cc2ccc(C)c([C@@H]3C[C@H](CO)[C@@H](O)[C@H](O)[C@H]3O)c2)cc1`, in [1], the IC50 stood at 52 nM.

On to `CCOC(=O)OC[C@H]1O[C@@H](Oc2ccccc2Cc2ccc(OC)cc2)[C@H](O)[C@@H](O)[C@@H]1O` [SERGLIFLOZIN ETABONATE], for which the outcome in the data set with Mus musculus [5] was Active. Besides, the result with Mus musculus [6] was inactive. This molecule registered a t1/2 in the data set with Mus musculus [8] of 49.2 min. Also, the Tmax in data set [9] stood at 15 min. In the data set on Mus musculus [10], this molecule gave a Cmax of 3360 ng/mL. The molecule also showed an AUC(0-inf) in data set [11] of 2970 ng·h/mL. Moreover, the Vz/F in the data set with Mus musculus [12] is 3.315 L/kg.

Regarding `CCc1ccc(Cc2cc([C@]3(O)C[C@H](CO)[C@@H](O)[C@H](O)[C@H]3O)ccc2OC)cc1`, inhibition in data set [1] was half-maximal at 100 nM (IC50).

For the molecule `CCc1ccc(Cc2ccc(OC)c([C@]3(O)C[C@H](CO)[C@@H](O)[C@H](O)[C@H]3O)c2)cc1`, the IC50 in [1] stood at 14 nM.

Turning to `CCc1ccc(Cc2cc([C@]3(O)C[C@H](CO)[C@@H](O)[C@H](O)[C@H]3O)c(OC)cc2OC)cc1`, the IC50 in [1] was 10 nM; at Cytochrome P450 3A4 [2], 29000 nM; at Cytochrome P450 3A4 [3], greater than 50000 nM.

Regarding `CCc1ccc(Cc2ccc(OC)c([C@@H]3C[C@H](CO)[C@@H](O)[C@H](O)[C@H]3O)c2)cc1`, the IC50 was 12 nM in data set [1], greater than 50000 nM at Cytochrome P450 3A4 [2] and greater than 50000 nM at Cytochrome P450 3A4 [3].

Turning to `CCc1ccc(Cc2ccc(C)c([C@]3(O)C[C@H](CO)[C@@H](O)[C@H](O)[C@H]3O)c2)cc1`, the IC50 in data set [1] amounted to 170 nM.

`COc1ccc(Cc2ccccc2O[C@@H]2C[C@H](CO)[C@@H](O)[C@H](O)[C@H]2O)cc1`: the Activity in the data set with Mus musculus [13] came out at 41.6%. The molecule also registered a t1/2 with Mus musculus [8] of 161 min. The Tmax in data set [9] was determined as 15 min. This molecule also had a Cmax with Mus musculus [10] of 1640 ng/mL. This molecule also displayed an AUC(0-inf) in [11] of 3070 ng·h/mL. For the same molecule, the Vz/F in the data set with Mus musculus [12] was determined as 12.586 L/kg.

In the case of `CCc1ccc(Cc2cccc([C@@H]3C[C@H](CO)[C@@H](O)[C@H](O)[C@H]3O)c2)cc1`, the IC50 in data set [1] is 49 nM; on Cytochrome P450 3A4 [2], greater than 50000 nM; on Cytochrome P450 3A4 [3] it was greater than 50000 nM.

As to `CCOc1ccc(Cc2ccc(CC)cc2)cc1[C@@H]1C[C@H](CO)[C@@H](O)[C@H](O)[C@H]1O`, the IC50 in data set [1] is 19 nM; on Cytochrome P450 3A4 [2], 36600 nM; at Cytochrome P450 3A4 [3], greater than 50000 nM. In addition, the outcome in the data set on Mus musculus [5] and with Mus musculus [6] was Active. Besides, the Activity in the data set on Mus musculus [7] is recorded as 42.6%. In addition, the half-life in data set [14] is 94.2 min. Also, in data set [9], the Tmax amounted to 15 min. Besides, the peak level in data set [15] (Cmax) was 3680 ng/mL. In data set [11], the AUC(0-inf) amounted to 6240 ng·h/mL. Further, the Vd/F in [16] was determined as 3.63 L/kg. Besides, the CL/F in data set [17] was 26.7 mL/min/kg.
